Test results: PubChem BioAssay (NCI)
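Assay format: 96-well plates, 48-hour exposure. TGI is the concentration that stops growth completely.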

Key:
Assay in all cases: NCI-60 cell line screen, 48 h
786-0 renal = test system: 786-0 renal
A498 renal = test system: A498 renal
A549 NSCLC = test system: A549 NSCLC
ACHN renal = test system: ACHN renal
BT-549 breast = test system: BT-549 breast
CAKI-1 renal = test system: CAKI-1 renal
COLO 205 colon = test system: COLO 205 colon
DU-145 prostate = test system: DU-145 prostate
EKVX NSCLC = test system: EKVX NSCLC
HCT-116 colon = test system: HCT-116 colon
HCT-15 colon = test system: HCT-15 colon
HL-60(TB) leukemia = test system: HL-60(TB) leukemia
HOP-62 NSCLC = test system: HOP-62 NSCLC
HOP-92 NSCLC = test system: HOP-92 NSCLC
HS 578T breast = test system: HS 578T breast
HT29 colon = test system: HT29 colon
IGROV1 ovarian = test system: IGROV1 ovarian
K-562 leukemia = test system: K-562 leukemia
KM12 colon = test system: KM12 colon
LOX IMVI melanoma = test system: LOX IMVI melanoma
M14 melanoma = test system: M14 melanoma
MALME-3M melanoma = test system: MALME-3M melanoma
MCF7 breast = test system: MCF7 breast
MDA-MB-231 breast = test system: MDA-MB-231 breast
MDA-MB-435 = test system: MDA-MB-435
MDA-N = test system: MDA-N
MOLT-4 leukemia = test system: MOLT-4 leukemia
NCI-H226 lung = test system: NCI-H226 lung
NCI-H23 lung = test system: NCI-H23 lung
NCI-H460 lung = test system: NCI-H460 lung
NCI-H522 lung = test system: NCI-H522 lung
NCI/ADR-RES ovarian = test system: NCI/ADR-RES ovarian
OVCAR-3 ovarian = test system: OVCAR-3 ovarian
OVCAR-4 ovarian = test system: OVCAR-4 ovarian
OVCAR-5 ovarian = test system: OVCAR-5 ovarian
OVCAR-8 ovarian = test system: OVCAR-8 ovarian
PC-3 prostate = test system: PC-3 prostate
RPMI-8226 leukemia = test system: RPMI-8226 leukemia
RXF 393 renal = test system: RXF 393 renal
SF-268 CNS = test system: SF-268 CNS
SF-295 CNS = test system: SF-295 CNS
SF-539 CNS = test system: SF-539 CNS
SK-MEL-2 melanoma = test system: SK-MEL-2 melanoma
SK-MEL-28 melanoma = test system: SK-MEL-28 melanoma
SK-MEL-5 melanoma = test system: SK-MEL-5 melanoma
SK-OV-3 ovarian = test system: SK-OV-3 ovarian
SN12C renal = test system: SN12C renal
SNB-19 CNS = test system: SNB-19 CNS
SNB-75 CNS = test system: SNB-75 CNS
SR leukemia = test system: SR leukemia
SW-620 colon = test system: SW-620 colon
T-47D breast = test system: T-47D breast
TK-10 renal = test system: TK-10 renal
U251 CNS = test system: U251 CNS
UACC-257 melanoma = test system: UACC-257 melanoma
UACC-62 melanoma = test system: UACC-62 melanoma
UO-31 renal = test system: UO-31 renal

Measured: TGI

O=C(O)/C=C/C=C/c1ccc2c(c1)OCO2
> 100 µM: 786-0 renal | A498 renal | A549 NSCLC | ACHN renal | BT-549 breast | CAKI-1 renal | COLO 205 colon | DU-145 prostate | EKVX NSCLC | HCT-116 colon | HCT-15 colon | HL-60(TB) leukemia | HOP-62 NSCLC | HOP-92 NSCLC | HS 578T breast | HT29 colon | IGROV1 ovarian | K-562 leukemia | KM12 colon | LOX IMVI melanoma | M14 melanoma | MALME-3M melanoma | MCF7 breast | MDA-MB-231 breast | MDA-MB-435 | MDA-N | MOLT-4 leukemia | NCI-H226 lung | NCI-H23 lung | NCI-H460 lung | NCI-H522 lung | NCI/ADR-RES ovarian | OVCAR-3 ovarian | OVCAR-4 ovarian | OVCAR-5 ovarian | OVCAR-8 ovarian | PC-3 prostate | RPMI-8226 leukemia | RXF 393 renal | SF-268 CNS | SF-295 CNS | SF-539 CNS | SK-MEL-2 melanoma | SK-MEL-28 melanoma | SK-MEL-5 melanoma | SK-OV-3 ovarian | SN12C renal | SNB-19 CNS | SNB-75 CNS | SR leukemia | SW-620 colon | T-47D breast | TK-10 renal | U251 CNS | UACC-257 melanoma | UACC-62 melanoma | UO-31 renal

CC(=O)Nc1nc2ncc(C=O)nc2c(=O)[nH]1
> 100 µM: 786-0 renal | A498 renal | A549 NSCLC | ACHN renal | BT-549 breast | CAKI-1 renal | COLO 205 colon | DU-145 prostate | EKVX NSCLC | HCT-116 colon | HCT-15 colon | HL-60(TB) leukemia | HOP-62 NSCLC | HOP-92 NSCLC | HS 578T breast | HT29 colon | IGROV1 ovarian | K-562 leukemia | KM12 colon | LOX IMVI melanoma | M14 melanoma | MALME-3M melanoma | MCF7 breast | MDA-MB-231 breast | MDA-MB-435 | MDA-N | MOLT-4 leukemia | NCI-H226 lung | NCI-H23 lung | NCI-H460 lung | NCI-H522 lung | NCI/ADR-RES ovarian | OVCAR-3 ovarian | OVCAR-4 ovarian | OVCAR-5 ovarian | OVCAR-8 ovarian | PC-3 prostate | RPMI-8226 leukemia | RXF 393 renal | SF-268 CNS | SF-295 CNS | SF-539 CNS | SK-MEL-2 melanoma | SK-MEL-28 melanoma | SK-MEL-5 melanoma | SK-OV-3 ovarian | SN12C renal | SNB-19 CNS | SNB-75 CNS | SR leukemia | SW-620 colon | T-47D breast | TK-10 renal | U251 CNS | UACC-257 melanoma | UACC-62 melanoma | UO-31 renal

C=C(C)c1ccccc1 (tested in a mixture with another compound)
> 100 µM: 786-0 renal | A498 renal | A549 NSCLC | ACHN renal | BT-549 breast | CAKI-1 renal | COLO 205 colon | DU-145 prostate | EKVX NSCLC | HCT-116 colon | HCT-15 colon | HL-60(TB) leukemia | HOP-62 NSCLC | HOP-92 NSCLC | HS 578T breast | HT29 colon | IGROV1 ovarian | K-562 leukemia | KM12 colon | LOX IMVI melanoma | M14 melanoma | MALME-3M melanoma | MCF7 breast | MDA-MB-231 breast | MDA-MB-435 | MDA-N | MOLT-4 leukemia | NCI-H226 lung | NCI-H23 lung | NCI-H460 lung | NCI-H522 lung | NCI/ADR-RES ovarian | OVCAR-3 ovarian | OVCAR-4 ovarian | OVCAR-5 ovarian | OVCAR-8 ovarian | PC-3 prostate | RPMI-8226 leukemia | RXF 393 renal | SF-268 CNS | SF-295 CNS | SF-539 CNS | SK-MEL-2 melanoma | SK-MEL-28 melanoma | SK-MEL-5 melanoma | SK-OV-3 ovarian | SN12C renal | SNB-19 CNS | SNB-75 CNS | SR leukemia | SW-620 colon | T-47D breast | TK-10 renal | U251 CNS | UACC-257 melanoma | UACC-62 melanoma | UO-31 renal
